Like-named read-outs stand apart in the source and are kept apart here.
How the values were obtained:
in vivo = conditions: mouse, in vivo, po
female white mice = experiment: animal or person; conditions: Mus musculus, po
female CF1 S mice = experiment: Mouse spontaneous motor activity (activity cage); assay type: in vivo, mouse (CF1 S female); conditions: 0.5 h, read-out: Exploratory Loss Activity Cage ED50
Experimental: Mouse Spontaneous Motor Activity (Activity Cage)
Twenty-four per dose, 16- 20 g or 18-22 g, female CF1 S mice, fasted 16- 22 hours, are intubated (in pairs) with drug at t doses such as 0, 1, 3, 9, 27 and 81 mg/kg in 10 ml/kg of aqueous 1% methylcellulose. The mice are then put in separate "shoe-box" cages (12 × 7.5 × 5.3 inches plastic with a 0.33 inch mesh stainless steel lid), and 20 minutes after intubation the animals in pairs are moved to covered Woodard Photoelectric Activity Chambers (central light source type measurement floor area = 96 in^2). Ten minutes later (30 minutes after dosing) a 5-minute count is taken. Counting chamber characteristics are balanced out by counting 2 pairs of mice from each dose level in each of 6 different counting chambers. Half of each test is run in the a.m. and the other half is run in the p.m. to minimize "biological clock" variations.
Canad. Biol. 20, 239-50 (1961), raw counts are thus transformed for statistical treatment (Student's t test). The means of the square roots then are squared and an ED50 for stimulation or depression (or both) is determined graphically.

[1] = tested on: phenylquinone-induced writhing; experiment: Phenylquinone writhing test (analgesia); assay type: in vivo, mouse (Carworth CF1 S female); conditions: Mus musculus
Excerpt: This mouse test is predictive of analgesic response in humans. [E. Siegmund, R. Cadmus and G. Lee, Proc. Soc.
ED50 values were obtained graphically from the data.

Holzman male white rats = experiment: Rat approach-avoidance test (anti-anxiety); assay type: in vivo, rat (Holzman male white); conditions: for anti-anxiety activity: in words; for ED50: Rattus norvegicus
Experimental: Potential as anti-anxiety agents was assessed by means of the potency of these compounds in the rat approach-avoidance test.
Approach-Avoidance Test Method
18 hr. waterdeprived Holzman male white rats, 150-175 g each, were used. The apparatus consists of two interconnected chambers, the first in which the animal is placed, and a second which contains the stimulus and a water bottle. The second is fitted with an electrifiable floor. On the first day, the rats are placed in the first chamber. They are allowed three minutes to find the water bottle in the second chamber and to drink water for at least two seconds. After three successful trials on the first day the animals are given one predrug trial on the second day. Then follows a second predrug trial during which the floor of the second chamber is electrified 1.5 seconds after the rat has commenced drinking water. The animals are randomized, dosed orally, and reexposed to the test situation at 1, 2, or 4 hours after the shock trial.

[2] = read-out: Catatonia ED50, Table 1, oral, mice
[3] = read-out: Exploratory Loss Visual ED50, Table 1, oral, mice
[4] = read-out: Muscle Tone ED50, Table 1, oral, mice
[5] = read-out: Ptosis ED50, Table 1, oral, mice
[6] = read-out: Reflexes Grip ED50, Table 1, oral, mice
[7] = read-out: Reflexes Lift ED50, Table 1, oral, mice
[8] = read-out: Reflexes Pinna ED50, Table 1, oral, mice
[9] = Table 1, oral, mice, 30 minutes after dosing
[10] = read-out: Ptosis ED50, Table 1, Extrapolated value
[11] = 0.3 mg/kg oral, 4 hrs, N=10 rats
[12] = Table II, oral, rats, 4 hrs, read-out: ED50

SMILES	LD50 at 24 h (in vivo)	ED50 (female white mice; [2])	ED50 (female white mice; [3])	ED50 (female white mice; [4])	ED50 (female white mice; [5])	ED50 (female white mice; [6])	ED50 (female white mice; [7])	ED50 (female white mice; [8])	ED50 (in vivo)	ED50 (female CF1 S mice; [9])	ED50 ([1]; po, Table 1, mice)	anti-anxiety activity (Holzman male white rats)	also measured
c1ccc2c(c1)[C@@H]1C[C@@]3(CN(CC4CCC4)C[C@H]23)c2ccccc21 (relative stereo) [Example 19, 2-Cyclobutylmethyl-2,3,8,12b-tetrahydro-1H-3a,8-methanodibenzo[3,4:6,7]cyclohepta[1,2-c]pyrrole]	> 324 mg/kg	20 mg/kg	20 mg/kg	12 mg/kg	7 mg/kg	200 mg/kg	20 mg/kg	12 mg/kg	–	–	–	–	ED50 (in vivo; Tremors ED50, Table 1, mice): > 324 mg/kg; ED50 (female CF1 S mice; po): 1 mg/kg; ED50 ([1]; Table 1, oral, mice): 5 mg/kg
c1ccc2c(c1)[C@@H]1C[C@@]3(CN(C[C@@H]4C[C@H]5CC[C@@H]4C5)C[C@H]23)c2ccccc21 (relative stereo) [Example 35, 2-(2-Exo-bicyclo[2.2.1]heptylmethyl)-2,3,8,12b-tetrahydro-1H-3a,8-methanodibenzo[3,4:6,7]cyclohepta[1,2-c]pyrrole]	> 324 mg/kg	15 mg/kg	8.6 mg/kg	12 mg/kg	5.1 mg/kg	> 324 mg/kg	29 mg/kg	21 mg/kg	> 324 mg/kg	3.3 mg/kg	6.2 mg/kg	–	–
CN(C)CCCN1c2ccccc2Sc2ccc(Cl)cc21 [Chlopromazine, Chlorpromazine, reference compound]	–	–	–	–	–	–	–	–	–	–	–	not active at non-sedating doses	ED50 (in vivo; Tremors ED50): > 324 mg/kg; ED50 (female CF1 S mice; po): 7.3 mg/kg
CN1C(=O)CN=C(c2ccccc2)c2cc(Cl)ccc21 [Diazepam, reference compound]	–	–	–	–	–	–	–	–	–	–	–	active in this test	ED50 (in vivo; Tremors ED50, Table 1, mice): > 324 mg/kg; ED50 (female CF1 S mice; po): 2 mg/kg; No. of Responders (Holzman male white rats; 1 mg/kg oral, 1 hr, N=6 rats): 0; No. of Responders (Holzman male white rats; 3 mg/kg oral, 1 hr, N=6 rats): 2; No. of Responders (Holzman male white rats; 10 mg/kg oral, 1 hr, N=6 rats): 5; ED50 (Holzman male white rats; po, 1 h): 6 mg/kg
c1ccc(CN2CC3c4ccccc4C4CC3(C2)c2ccccc24)cc1 (stereo not shown) [Example 4, 2-Benzyl-2,3,8,12b-tetrahydro-1H-3a,8-methanodibenzo[3,4:6,7]cyclohepta[1,2-c]pyrrole]	> 324 mg/kg	20 mg/kg	20 mg/kg	20 mg/kg	20 mg/kg	> 324 mg/kg	36 mg/kg	300 mg/kg	> 324 mg/kg	4.6 mg/kg	9.4 mg/kg	–	–
c1ccc2c(c1)C1CC3(CN(CC4CCCC4)CC23)c2ccccc21 (stereo not shown) [Example 7, 2-Cyclopentylmethyl-2,3,8,12b-tetrahydro-1H-3a,8-methanodibenzo[3,4:6,7]cyclohepta[1,2-c]pyrrole]	> 324 mg/kg	8 mg/kg	7 mg/kg	7 mg/kg	–	210 mg/kg	11 mg/kg	9 mg/kg	> 324 mg/kg	0.66 mg/kg	2 mg/kg	potent anti-anxiety or minor tranquilizer activity	ED50 (female white mice; [10]): 3 mg/kg; No. of Responders (Holzman male white rats; 0.03 mg/kg oral, 4 hrs, N=10 rats): 1; No. of Responders (Holzman male white rats; 0.1 mg/kg oral, 4 hrs, N=20 rats): 7; No. of Responders (Holzman male white rats; [11]): 6; ED50 (Holzman male white rats; [12]): 0.2 mg/kg
CCCCCCN1CC2c3ccccc3C3CC2(C1)c1ccccc13 (stereo not shown) [Example 14, 2-n-Hexyl-2,3,8,12 b-tetrahydro-1H-3a,8-methanodibenzo[3,4:6,7]cyclohepta[1,2-c]pyrrole]	> 324 mg/kg	5.6 mg/kg	7 mg/kg	4.1 mg/kg	4.5 mg/kg	187 mg/kg	8.6 mg/kg	11 mg/kg	326 mg/kg	1.3 mg/kg	2.6 mg/kg	–	–
CCCCCCCN1CC2c3ccccc3C3CC2(C1)c1ccccc13 (stereo not shown) [Example 15, 2-n-Heptyl-2,3,8,12b-tetrahydro-1H-3a,8-methanodibenzo[3,4:6,7]cyclohepta[1,2-c]pyrrole]	> 324 mg/kg	5 mg/kg	–	–	< 3 mg/kg	260 mg/kg	9 mg/kg	–	> 324 mg/kg	1 mg/kg	3.6 mg/kg	–	ED50 (female white mice; read-out: Exploratory Loss Visual ED50, Table 1, Extrapolated value): 3.2 mg/kg; ED50 (female white mice; read-out: Muscle Tone ED50, Table 1, Extrapolated value): 3 mg/kg
c1ccc2c(c1)C1CC3(CN(CC4CCCCC4)CC23)c2ccccc21 (stereo not shown) [Example 25, 2-Cyclohexylmethyl-2,3,8,12b-tetrahydro-1H-3a,8-methanodibenzo[3,4:6,7]cyclohepta[1,2-c]pyrrole]	320 mg/kg	9 mg/kg	9 mg/kg	8 mg/kg	–	–	8 mg/kg	7 mg/kg	450 mg/kg	4.7 mg/kg	6.4 mg/kg	potent anti-anxiety or minor tranquilizer activity	ED50 (female white mice; [10]): 3 mg/kg; ED50 (female white mice; read-out: Reflexes Grip ED50, Table 1, Extrapolated value): 450 mg/kg; No. of Responders (Holzman male white rats; 0.1 mg/kg oral, 4 hrs, N=10 rats): 1; No. of Responders (Holzman male white rats; [11]): 2; No. of Responders (Holzman male white rats; 1.0 mg/kg oral, 4 hrs, N=8 rats): 5; ED50 (Holzman male white rats; [12]): 0.5 mg/kg
C1=C(CN2CC3c4ccccc4C4CC3(C2)c2ccccc24)CCCC1 (stereo not shown) [Example 26, 2-(1-Cyclohexenylmethyl)-2,3,8,12b-tetrahydro-1H-3a,8-methanodibenzo[3.4:6,7]cyclohepta[1,2-c]pyrrole]	> 324 mg/kg	10 mg/kg	12 mg/kg	7 mg/kg	6 mg/kg	400 mg/kg	15 mg/kg	15 mg/kg	> 324 mg/kg	0.8 mg/kg	6.8 mg/kg	–	–
C1=CCC(CN2CC3c4ccccc4C4CC3(C2)c2ccccc24)CC1 (stereo not shown) [Example 27, 2-(3-Cyclohexenylmethyl)-2,3,8,12b-tetrahydro-1H-3a,8-methanodibenzo[3,4:6,7]cyclohepta[1,2-c]pyrrole]	> 324 mg/kg	4.5 mg/kg	4.5 mg/kg	4.5 mg/kg	2.9 mg/kg	97 mg/kg	9 mg/kg	8 mg/kg	> 324 mg/kg	0.29 mg/kg	4.2 mg/kg	–	–
